Common to all, as to format: cell-based, human
The subject of one data set is Staufen1. The data set is described as follows: Western blot of Staufen1 in SH-SY5Y and ATXN2-Q22/58 knock-in cells. To be noted: ATXN2-Q22/58 KI cells, RNAi. On the procedure:
(§1) SH-SY5Y cells were cultured in standard DMEM with 10% FBS and 1X penicillin/streptomycin in 5% CO2. Transfection of STAU1 siRNA or STAU1 ASO was accomplished using Lipofectamine transfection reagent using standard conditions. Cells were harvested 3-5 days post transfection.
(§2) Protein extracts were prepared by suspending cell pellets in SDS-PAGE sample buffer (Laemmli sample buffer) followed by boiling for 5 min. Equal amount of the extracts were subjected to Western blot analysis to determine the steady-state levels of proteins using the indicated antibodies. Protein extracts were resolved by SDS-PAGE and transferred to Hybond P membranes (Amersham Bioscience Inc., USA). After blocking with 5% skim milk in 0.1% Tween 20/PBS, the membranes were incubated with primary antibodies in 5% skim milk in 0.1% Tween 20/PBS for 2 hrs at room temperature or overnight at 4° C. After several washes with 0.1% Tween 20/PBS, the membranes were incubated with the corresponding secondary antibodies conjugated with HRP in 5% skim milk in 0.1% Tween 20/PBS for 2 hrs at room temperature. Following three additional washes with 0.1% Tween 20/PBS, signals were detected by using the Immobilon Western Chemiluminescent HRP Substrate (Millipore Inc., USA; cat #WBKLSO100) according to the manufacturer's protocol. The antibodies used included ATXN2 mAb [(1:3000), BD Biosciences Inc.; cat #611378], rabbit anti-Staufen antibody (Novus biologicals Inc., NBP1-33202), SQSTM1/p62 antibody (Cell signaling, #5114), LC3B Antibody (Novus biologicals Inc., NB100-2220), mTOR antibody (Cell signaling, #2972), Phospho-mTOR (Ser2448) antibody (Cell signaling #2971), β-Actin mAb conjugated with HRP [(1:10,000), Sigma Inc.; cat #A3858]. Secondary antibodies were horse anti-mouse IgG-HRP antibody (Vector laboratories, PI-2000), and goat anti-rabbit IgG-HRP antibody (Vector laboratories, PI-1000).
(§3) For over-expression of recombinant proteins, SH-SY5Y cells were seeded on 100 mm or 6 well dishes and incubated overnight. The cells were then transfected with plasmid DNAs and harvested 48 hrs post-transfection and processed as two aliquots for protein and RNA analyses. For siRNA experiments, cells were transfected with siRNAs using lipofectamine 2000, and lymphoblastoid B cells (1×10^6) were electroporated with siRNAs using the Neon transfection system (Invitrogen Inc., USA) according to the manufacturer's protocol and seeded on 6 well plates.
(§4) Preparation of protein lysates and western blot analyses. […] Signals were detected by using the Immobilon Western Chemiluminescent HRP Substrate (Millipore Inc., USA; cat #WBKLSO100) according to the manufacturer's protocol. The intensity of proteins was determined by using the ImageJ software analyses system and the relative protein abundances were expressed as ratios to β-actin.
A general note: A western blot detects proteins with antibodies after separation by electrophoresis.

In data set [1] the test system is autophagic pathway proteins (mTOR, P-mTOR, p62, LC3-II). The data set is described as follows: Western blot of autophagic pathway proteins in SH-SY5Y and ATXN2-Q22/58 knock-in cells. On the procedure:
as §1
as §2, with “The antibodies used included ATXN2 mAb [(1:3000), BD Biosciences Inc.; cat #611378], rabbit anti-Staufen antibody (Novus biologicals Inc., NBP1-33202), SQSTM1/p62 antibody (Cell signaling, #5114), LC3B Antibody (Novus biologicals Inc., NB100-2220), mTOR antibody (Cell signaling, #2972), Phospho-mTOR (Ser2448) antibody (Cell signaling #2971), β-Actin mAb conjugated with HRP [(1:10,000), Sigma Inc.; cat #A3858].” left out
as §3
Preparation of protein lysates and western blot analyses. Cellular extracts were prepared by a single-step lysis method. […] Equal amounts of the extracts were used for western blot analyses. […] Only supernatants were used for western blotting. Protein extracts were resolved by SDS-PAGE and transferred to Hybond P membranes (Amersham Bioscience Inc., USA). After blocking with 5% skim milk in 0.1% Tween 20/PBS, the membranes were processed for immunostaining using corresponding primary and secondary antibodies. Signals were detected by using the Immobilon Western Chemiluminescent HRP Substrate (Millipore Inc., USA; cat #WBKLSO100) according to the manufacturer's protocol. The intensity of proteins was determined by using the ImageJ software analyses system and the relative protein abundances were expressed as ratios to β-actin.

In the next data set the test system is mTOR and phospho-mTOR. Kind of data set: Western blot of mTOR and phospho-mTOR after mTOR RNAi. To be noted: SH-SY5Y and ATXN2-Q22/58 KI cells, 4 days post-transfection.
Description: siRNAs. The siRNAs used in this study were: All Star Negative Control siRNA (Qiagen Inc., USA; Cat #1027280), human siATXN2 [Hs_ATXN2_2 (Qiagen Inc., USA; Cat #SI00308196)], human siSTAU1: 5′-CCUAUAACUACAACAUGAGdTdT-3′ (SEQ ID NO: 3), and simTOR: 5′-GAGCCUUGUUGAUCCUUAA-3′ (SEQ ID NO: 4). Staufen1 and mTOR siRNA oligonucleotides were synthesized by Invitrogen Inc., USA. The oligonucleotides were deprotected and the complementary strands were annealed.
as §3, §4

Turning to “5′-GAGCCUUGUUGAUCCUUAA-3′ (listed as RNA, chemistry not given here; listed as Homo sapiens) [simTOR, mTOR siRNA synthesized by Invitrogen]”, in the data set on Staufen1, the Staufen1 abundance entry is listed as “reduced Staufen1”. Besides, the autophagic pathway proteins result in data set [1] (ATXN2-Q22/58 knock-in cells, RNAi transfection) is given as “improves autophagy marker proteins”. In addition, in data set [1] (control SH-SY5Y cells, mTOR RNAi, 4 days post-transfection), the “Staufen1 and autophagic pathway protein component levels in control cells” value was “without affecting those levels”. The “mTOR and phospho-mTOR levels” value in the data set on mTOR and phospho-mTOR is listed as “depletion”.

For the origin of these results see patent publication US12409189B2, “STAUFEN1 agents and associated methods” (University of Utah Research Foundation, priority 2016, dated 2025).
